# Data from PubChem BioAssay (NCI).
# “And” between values parts separate entries of the source, which are not always exact repeats. Identical values can stand only once.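 Five concentrations, 48 hours, 96-well plates. The concentration for 50% growth inhibition is given as GI50. TGI marks complete inhibition of growth.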
# What was measured:
# Experiment in all cases: growth of human tumour cells (NCI), 48 h
# [1] = system: MDA-MB-435
# [2] = system: LXFL 529 NSCLC
# [3] = system: DMS 114 small cell lung
# [4] = system: KM20L2 colon
# [5] = system: XF 498 CNS
# [6] = system: SNB-78 CNS
# [7] = system: DMS 273 small cell lung
# [8] = system: DLD-1 colon
compound,measurement,setting,value
O=c1cc(C(F)(F)F)c2cc3c(cc2o1)NCCC3,TGI,[1],> 100 µM
COc1ccc(-n2c(SCc3cc(OC)c(OC)c(OC)c3)nc3ccc(C)cc3c2=O)c(OC)c1,GI50,[1],1.05 µM
same,TGI,[1],3.07 µM
COc1ccc(/C=N/N=C(\N)NO)cc1OC,TGI,[2],> 100 µM
same,TGI,[3],92.5 µM
same,TGI,[4],> 100 µM
same,TGI,[5],> 100 µM
same,TGI,[6],> 100 µM
same,TGI,[7],> 100 µM
same,TGI,[8],> 100 µM
O=C1C=C[C@@]23CC1C(O)C[C@H]2C=Cc1ccccc13 (stereo partly drawn),TGI,[2],> 100 µM
same,TGI,[3],> 100 µM
same,TGI,[4],> 100 µM
same,TGI,[5],> 100 µM
same,TGI,[8],> 100 µM
C(=N\Nc1ccccn1)/c1ccccn1,GI50,[1],0.483 µM
same,TGI,[1],> 100 µM
O=C(O)c1cc2ccccc2c(O)c1O,TGI,[1],3.33 µM
O=C1C(Cl)=C(Cl)C(=O)N1C1C2CC3CC(C2)CC1C3 (stereo not drawn),TGI,[2],> 100 µM
same,TGI,[3],> 100 µM
same,TGI,[4],> 100 µM
same,TGI,[5],> 100 µM
same,TGI,[6],> 100 µM
same,TGI,[7],> 100 µM
same,TGI,[8],> 100 µM
Cc1c(C#N)cccc1-c1cc(-c2cn(Cc3cccc(C(C)(C)O)n3)nn2)nc(N)n1,GI50,[1],26.8 µM
same,TGI,[1],> 100 µM
CC(=O)Nc1ccc(/C=C/[N+](=O)[O-])cc1,TGI,[1],9.23 µM
NC(=O)c1cnc(N[C@@H]2CCCC[C@@H]2N)nc1Nc1cccc(-n2nccn2)c1,GI50,[1],3.03 µM
same,TGI,[1],10.9 µM
N#CC(=S)Nc1cccc(Cl)c1,TGI,[1],> 100 µM
O=C1c2cccc3cc([N+](=O)[O-])cc(c23)C(=O)N1CCNCCNCCNCCN1C(=O)c2cccc3cc([N+](=O)[O-])cc(c23)C1=O,TGI,[2],0.496 µM
same,TGI,[3],0.41 µM and 0.264 µM
same,TGI,[4],0.576 µM
same,GI50,[6],0.0474 µM
same,TGI,[6],0.399 µM and 0.686 µM
same,TGI,[7],0.177 µM and 0.23 µM
same,TGI,[8],0.272 µM
[Cl][Bi]([O]c1ccccn1)[O]c1ccccn1,GI50,[3],57 µM
same,TGI,[3],> 100 µM
same,GI50,[4],> 100 µM
same,TGI,[4],> 100 µM
same,GI50,[5],> 100 µM
same,TGI,[5],> 100 µM
same,GI50,[7],> 100 µM
same,TGI,[7],> 100 µM
same,GI50,[8],> 100 µM
same,TGI,[8],> 100 µM
O=C1CCC(Cc2ccc(Cl)cc2Cl)C(=O)N1 (stereo not drawn),TGI,[1],> 100 µM
Oc1ccc(Cc2ccc(O)c3ncccc23)c2cccnc12,GI50,[1],0.0383 µM
same,TGI,[1],> 100 µM
Nc1ccccc1C#C/C=C\C#Cc1ccccc1C(F)(F)F,GI50,[1],0.355 µM
same,TGI,[1],1.3 µM
CCN(Cc1cccc(OC)c1)c1ccc(CO)c(Cl)c1,GI50,[1],16.6 µM
same,TGI,[1],35.6 µM
O=c1n(C2CCCCC2)c(=C(Cl)Cl)c(=C(Cl)Cl)n1C1CCCCC1,TGI,[3],> 100 µM
same,TGI,[4],> 100 µM
same,TGI,[5],> 100 µM
same,TGI,[6],> 100 µM
same,TGI,[7],> 100 µM
same,TGI,[8],> 100 µM
O=c1cccc(C#CC#C[C@H]2O[C@@H]2CO)o1,GI50,[1],0.474 µM
same,TGI,[1],1.21 µM
COc1cc(Nc2nc3cc(N)cc(N)c3nc2-c2ccccc2)cc(OC)c1,GI50,[1],11.5 µM
same,TGI,[1],23.8 µM
Cc1ccc2c(c1)nc(C(=O)c1ccco1)c(C(F)(F)F)[n+]2[O-],GI50,[1],> 100 µM
same,TGI,[1],> 100 µM
CC1=C([Se]CC(OC(=O)CC[Se]c2ccccc2)C(=O)NCCCCCC(=O)OCc2ccccc2)C(=O)c2ccccc2C1=O (stereo not drawn),GI50,[1],2.45 µM
same,TGI,[1],7.45 µM
CCN(CC)c1ccc(/C=C\c2cc(C)c3cc(C)ccc3n2)cc1,GI50,[1],2.1 µM
same,TGI,[1],> 100 µM
C/C(=N/S(=O)(=O)c1ccc(Cl)c(Cl)c1)OCC(C)(C)C,TGI,[1],> 100 µM
CC[C@]1(O)CC2CN(CCc3c([nH]c4ccccc34)[C@@](C(=O)OC)(c3cc4c(cc3OC)N(C)[C@H]3[C@@](O)(C(=O)OC)[C@H](OC(C)=O)[C@]5(CC)C=CCN6CC[C@]43[C@@H]65)C2)C1 (stereo partly drawn),GI50,[1],< 0.005 µM
same,TGI,[1],< 0.005 µM
CCCCCCCCCC(=O)CC(=O)c1ccc(O)cc1O,TGI,[2],> 100 µM
same,TGI,[4],> 100 µM
same,TGI,[7],74.1 µM
same,TGI,[8],> 100 µM
CC(=O)OC[C@H]1O[C@@H](n2ccc(=O)[nH]c2=O)[C@H](OC(C)=O)[C@@H]1OC(C)=O,GI50,[1],> 100 µM
same,TGI,[1],> 100 µM
O=C(O)c1ccc2c(c1)Cc1cc([N+](=O)[O-])ccc1-2,TGI,[1],> 100 µM
COc1ccccc1-[n+]1cc(-c2ccc(-c3ccccc3)cc2)n2c1CCCCC2,GI50,[1],0.27 µM
same,TGI,[1],3.6 µM
Nc1ccc2c(SCCSc3c4ccccc4nc4cc(N)ccc34)c3ccccc3nc2c1,TGI,[1],> 100 µM
c1ccc(Cc2nc3ccc(Nc4ncnc5ccccc45)cc3[nH]2)cc1,GI50,[1],> 25 µM
same,TGI,[1],> 25 µM
COCCn1cc(-c2csc(-c3c[nH]c4ccccc34)n2)c2cccnc21,GI50,[1],0.863 µM
same,TGI,[1],5.25 µM
